From patent publication US20260258397A1, “REAGENTS AND SYSTEMS FOR […]” (priority 2023, published 2026)
Values joined by “and” are separate entries in the source; they are usually repeats but may differ in a detail not shown here. Equal values may be shown once. Read-outs that look alike come from different tables or passages of the source.

Experiments:
[1] = molecular target: T1, PYR1^4F-M (Arabidopsis thaliana, UniProt O49686, A160G/F159V/H115Q/H60P/N90S/Y120G); experiment: PYR1 ELISA-like plate assay, immobilized PYR1^4F-M with biotinylated ΔN-HAB1^T+; type: binding; settings: PYR1^4F-M ELISA-like format
T1 construct: made in house; host or cells: E. coli
T1 sequence (O49686 whole entry H60P/N90S/H115Q/Y120G/F159V/A160G, other chains not shown): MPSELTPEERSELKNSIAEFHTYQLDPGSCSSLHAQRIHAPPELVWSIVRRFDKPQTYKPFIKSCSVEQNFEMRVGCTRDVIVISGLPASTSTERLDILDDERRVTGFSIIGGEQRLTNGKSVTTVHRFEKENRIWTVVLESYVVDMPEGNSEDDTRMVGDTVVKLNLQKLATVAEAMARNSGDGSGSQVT
Method: PYR1 was immobilized overnight in clear plates, blocked with KPL milk diluent in buffer CBS ^17 (CBSM). All binding reactions were performed using CBSM. Detection was performed via binding a streptavidin-HRP conjugate to biotinylated ΔN-HAB1^T+ followed by incubation with a commercial TMB reagent. Lower limits of detection (LODs) were determined by linear regression of the response data in the low linear range using the formula LOD=3σy/m, where m is the slope of the response line and σy is the standard error of the y intercept using data combined from biological replicates.
Unconjugated 6×His-MBP-PYR1 variants were immobilized to Microlon clear plates (655081) using 100 μL of CBS without pH modification, at a protein concentration of 100 μg mL^−1, or 1.57 AM at 4° C. overnight. Wells assigned as no PYR controls received only CBS. Plates were sealed using Microseal B adhesive sealers (BioRad MSB-1001). […] The pellet was stored on ice until the blocked and washed plates were ready to receive the binding reactions. ΔN-HAB1^T+ was exchanged into CBSM with 1 mM DTT and 1 mM TCEP (CBSM++) using Zeba™ spin desalting columns (Thermo) were equilibrated with CBSM++. ΔN-HAB1^T+ was diluted to 10× the final binding reaction concentration and was immediately added to the pre-assembled assays in PCR plates, which were mixed by pipetting and transferred to the washed, blocked Microlon plates. […]

[2] = molecular target: T2, PYR1^DIAZI (Arabidopsis thaliana, UniProt O49686, A160V/E8G/F108Y/F159G/L87M/M158V/V81Y); experiment: cell-based; settings: for Bottom: fit bottom of GFP fluorescence response; for Top: fit top of GFP fluorescence response
T2 construct: expressed in transfected cells; host or cells: S. cerevisiae (2µ plasmid)
T2 sequence (O49686 1-191 E8G/V81Y/L87M/F108Y/M158V/F159G/A160V): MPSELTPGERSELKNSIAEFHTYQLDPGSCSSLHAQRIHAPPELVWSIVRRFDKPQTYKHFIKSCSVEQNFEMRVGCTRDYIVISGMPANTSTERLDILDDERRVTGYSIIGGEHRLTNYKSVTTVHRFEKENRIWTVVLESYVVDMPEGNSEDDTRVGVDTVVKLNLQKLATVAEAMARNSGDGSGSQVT
T2 sequence (Q9CAJ0 178-511 partner): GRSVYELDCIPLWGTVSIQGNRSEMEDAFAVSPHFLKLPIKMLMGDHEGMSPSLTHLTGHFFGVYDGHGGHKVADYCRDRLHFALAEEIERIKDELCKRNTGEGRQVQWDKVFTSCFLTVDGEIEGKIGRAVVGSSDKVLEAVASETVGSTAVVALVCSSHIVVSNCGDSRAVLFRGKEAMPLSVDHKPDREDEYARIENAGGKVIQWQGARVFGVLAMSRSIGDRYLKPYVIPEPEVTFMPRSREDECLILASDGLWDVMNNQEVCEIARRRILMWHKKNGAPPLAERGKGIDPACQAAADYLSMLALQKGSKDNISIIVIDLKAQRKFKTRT
Source text: (§1) PYR1 variants were used to drive gene expression in an inducible genetic circuit by fusing a zinc finger DNA binding domain (Z4^32) to the N-terminus of PYR1, and the VP64 activation domain 33 to the N-terminus of ΔN-HAB1. The SV40 nuclear localization signal was also fused to the N-terminus of PYR1. A single 2u plasmid was used to express SV40-Z4DBD-PYR1 and VP64-HAB1, while the GFP expression cassette (Z44-CYCcore-GFP-CYC 1term) was integrated at the YPRCΔ15 site on chromosome XVI. GFP fluorescence induced by each circuit was measured 12 h after ligand addition to 1 mL cultures, 30° C. Fluorescence was measured by flow cytometry. Briefly, 50 μL of resuspended cells were transferred to a 96-well plate for analysis. The fluorescence intensity of each cell was measured using a BD Accuri C6 flow cytometer equipped with auto-loading. The forward scatter, side scatter, and GFP fluorescence (Ex/Em 488/533 nm) were recorded for a minimum of 10,000 events.
(§2) Transformed yeast cells were acquired by first inoculating 5 mL of liquid media and incubating in a shaker incubator overnight at 30° C. Cells from the overnight culture were then used to inoculate a 50 mL culture with an initial cell density of 5×10^6 cells/mL. This culture was grown at 30° C. with 200 rpm shaking until ~2×10^7 cells/mL were produced, approximately 3 to 5 hours. Cells were harvested by centrifugation at 4000 rpm for 5 min, washed with 25 mL sterile, deionized water, resuspended in 1 mL of 100 mM LiAc, and transferred to a 1.5 mL tube, producing a cell suspension with approximately 10^9 cells/mL. The cell suspension was briefly mixed by vortexing and 100 μL was transferred into a clean 1.5 mL tube for each transformation. Cells were pelleted at 13000 rpm for 15 sec and the supernatant was removed. A transformation mixture of 240 μL PEG (50% w/v), 36 μL 1.0 M LiAc, 50 μL salmon sperm DNA (2.0 mg/ml), plasmid, and sterile water were added to the cell pellet and mixed by vortexing for 1 min (total volume of 360 μL). The mixed transformation solution was then heat shocked at 42° C. for 40 min. Post heat-shock, cells were recovered by centrifugation at 8000 rpm for 30 sec. Cells resuspended in 400 μL sterile water were plated on appropriate selection media, in this case agar-SD media without uracil. Plates were incubated at 30° C. until mature colonies were formed.
(§3) Three single transformants were picked from selection plates, inoculated in 2 mL of SD-Ura containing 2% glucose in 14 mL culture tubes. After 24 hours of growth at 30° C. in a shaker incubator (200 rpm), the OD600 of each sample was measured and cultures were back diluted to OD600=0.2 in fresh SD-Ura, the total volume of diluted culture was 9 mL. Each 9 mL culture was separated into 8 unique cultures by transferring 1 mL into 8 different wells of a 96 deep-well plate. Each well was used to evaluate the effect of a specific concentration of ligand. After all the cultures were transferred, 1 μL of stock ligand solution (each stock varying in concentration) was added to each well. The plate was sealed with an air-breathable polymer film and cultured with 1000 rpm shaking at 30° C. for 12 hours. Shaker humidity was maintained at 90%. Cells were harvested by centrifuge at 5000 g for 10 min, and after discarding the supernatant, the cells were suspended in 1 mL PBS buffer and centrifuged at 5000 g for 10 min. The cells were washed with 1 mL PBS buffer twice and resuspended in 1 mL DI water for flow cytometry analysis. For flow cytometry analysis, 50 μL of resuspended cells were transferred to a 96-well plate with flat bottom, adding DI water up to final volume 200 μL. The fluorescence intensity of cells within each sample was measured using a BD Accuri C6 flow cytometer equipped with auto-loading from 96 well plates. The forward scatter, side scatter, and GFP fluorescence (Ex/Em 488/533 nm) were recorded for a minimum of 10,000 events.

[3] = molecular target: T3, PYR1^PIRI (Arabidopsis thaliana, UniProt O49686, A160T/E130G/F159T/K59R/N119S/S122Q/S92M/V174A); experiment: cell-based; settings: for Bottom: fit bottom of GFP fluorescence response; for Top: fit top of GFP fluorescence response
T3 construct: expressed in transfected cells; host or cells: S. cerevisiae (2µ plasmid)
T3 sequence (O49686 1-191 K59R/S92M/N119S/S122Q/E130G/F159T/A160T/V174A): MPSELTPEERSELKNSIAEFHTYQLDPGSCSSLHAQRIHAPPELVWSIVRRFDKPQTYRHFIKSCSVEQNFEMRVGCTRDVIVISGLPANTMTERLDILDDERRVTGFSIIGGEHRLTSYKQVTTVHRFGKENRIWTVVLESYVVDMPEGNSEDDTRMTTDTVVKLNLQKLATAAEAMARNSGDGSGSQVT
T3 sequence (Q9CAJ0 178-511 partner): T2 sequence (Q9CAJ0 178-511 partner)
Source text: as §1, §2, §3

[4] = tested on: PYR1 mutant receptors (ligand-dependent binding to HAB1); experiment: Yeast two-hybrid screens and optimization for organophosphate sensors; type: cell-based, Arabidopsis; settings: after four rounds of recombination-based mutagenesis (PYR1^DIAZI, PYR1^PIRI)
Method: Surviving cells were collected and used in subsequent positive selections for ligand-responsive receptors on SD,-Leu,-Trp,-Ura media supplemented with a specific test chemical (100 μM) for responsiveness to any of the 10-member panel of organophosphate compounds: diazinon, pirimiphos-methyl, azinphos-ethyl, dimethoate, chlorfenvinphos, disulfoton, parathion-methyl, bromophos-methyl, malathion, and monocrotophos; all compounds were purchased form (Sigma-Aldrich). Isolated colonies were tested by regrowth on ligand-containing media and by dose response using X-gal staining and Sanger sequenced (see FIG. 13a-d).
Recombination-based mutagenesis of hit receptors was used to generate subsequent molecular diversity for selection-based optimization experiments, using the same general strategy across all scaffolds utilized. […] The resulting shuffled DNA fragments were cloned into pBD, transformed into E. coli, colonies collected, and plasmids extracted.

[5] = tested on: HAB1; experiment: Y2H X-gal staining of evolved sensors: ligand responsiveness and cross reaction; type: cell-based, Arabidopsis; settings: ligands WIN 55,212-2, 4F-MDMB-BUTINACA, AB-PINACA, JWH-072; PYR1^JWH-072 to low μM WIN 55,212-2, PYR1^4F to low μM AB-PINACA
Method: High-affinity sensors were tested for cross reaction using both Y2H and in vitro PP2C assays. […] Similar methods were used to characterize PYR1^PIRI and PYR1^WIN sensor selectivity and sensitivity.
The PYL2 coding sequence cloned in the Y2H pBD vector was used as template to incorporate the corresponding PYR1^WIN and PYR1^4F homologous residues via site directed mutagenesis using the QuikChange Lightning Multi Site-Directed mutagenesis kit (Agilent Technologies). Resulting clones PYL2^WIN (K64Q, F165A, V1661) and PYL2^4F (H119Q, Y124G, F165V, V166G) were sequence confirmed and incorporated into MAV99 harboring pACT-HAB1 and tested for ligand activation using uracil-independent growth and X-gal staining experiments. The same method was used to generate a PYL2^WIN version in a protein expression vector for crystallization studies.

| Compound | Bottom ([2]; PYR1-DIAZI) | Top ([2]; PYR1-DIAZI) | Bottom ([3]; PYR1-PIRI) | Top ([3]; PYR1-PIRI) | ligand concentration to which optimized sensors respond [4] [nM] | further results |
| --- | --- | --- | --- | --- | --- | --- |
| COC(=O)[C@@H](NC(=O)c1nn(CCCCF)c2ccccc12)C(C)(C)C [4F-MDMB, 4F-MDMB-BUTINACA] |  |  |  |  |  | average LOD from two biological replicates [1]: 6 nM and 2.2 ng/ml |
| CCOP(=S)(OCC)Oc1cc(C)nc(C(C)C)n1 [Diazinon, diazinon] | 17196 | 103999 | 19123 | 109997 | 10 | EC50 ([2]; PYR1-DIAZI, no unit in table (text b82 gives the same values in nM), read-out: EC50): 43.1 nM; EC50 ([2]; PYR1^DIAZI, yeast-transcription circuit, read-out: EC50): 43 nM; EC50 to diazinon lower than all other molecules profiled ([2]; PYR1^DIAZI, selectivity versus panel of chemically similar organophosphates): greater than 10 fold; EC50 ([3]; PYR1-PIRI, no unit in table (text b82 gives the same values in nM/μM), read-out: EC50): 1010 nM; EC50 ([3]; PYR1^PIRI, yeast-transcription circuit, strongest off-target response, read-out: EC50): 1000 nM; EC50 higher than that with pirimiphos ([3]; PYR1^PIRI, off-target diazinon versus pirimiphos): 50 fold |
| CCN(CC)c1nc(C)cc(OP(=S)(OC)OC)n1 [Pirimiphos, pirimiphos-methyl] | 14673 | 88148 | 12745 | 105951 | 10 | EC50 [2]: 17400 nM; EC50 [3]: 20 nM |
| PYR1^JWH-072: PYR1 variant sensor for JWH-072; cannabinoid receptor sequence (MPSGLTPEERSELKNSIAEFHTYQLDPGSCSSLHAQRIHAPPELVWSIVRRFDKPQTYN) |  |  |  |  |  | cross-reactivity to off-target cannabinoid ligands [5]: modest cross-reactivity |
